These results are taken from patent US20090099169A1, “Benzofuran Compounds As EP1 Receptor Antagonists” (GLAXO GROUP LIMITED, priority 2006, published 2009).

In the assay the target is T1, human EP1 receptor (Homo sapiens, UniProt P34995).
T1 sequence (P34995 1-402): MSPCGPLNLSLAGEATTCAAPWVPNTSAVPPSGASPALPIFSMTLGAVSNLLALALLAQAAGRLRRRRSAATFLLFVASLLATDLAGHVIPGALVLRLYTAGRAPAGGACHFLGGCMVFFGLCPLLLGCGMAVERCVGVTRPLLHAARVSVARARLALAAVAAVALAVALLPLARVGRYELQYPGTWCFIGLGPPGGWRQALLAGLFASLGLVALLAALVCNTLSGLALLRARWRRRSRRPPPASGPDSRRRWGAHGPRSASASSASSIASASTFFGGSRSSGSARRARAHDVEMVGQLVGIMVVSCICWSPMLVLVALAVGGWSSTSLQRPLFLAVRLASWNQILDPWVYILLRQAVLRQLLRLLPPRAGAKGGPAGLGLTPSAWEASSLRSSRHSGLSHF
Nature of the assay: human EP1 calcium mobilisation assay. The settings on record: CHO-K1 cells, antagonism of PGE2; averages of a number of experiments; read-out: functional pKi value (human EP1 calcium mobilisation assay) (converted). The class given is cell-based. On the set-up: expressed in transfected cells. As to the method: Briefly, the antagonist properties of compounds are assessed by their ability to inhibit the mobilisation of intracellular calcium ([Ca^2+]i) in response to activation of EP1 or EP3 receptors by the natural agonist hormone prostaglandin E2 (PGE2). Increasing concentrations of antagonist reduce the amount of calcium that a given concentration of PGE2 can mobilise. The net effect is to displace the PGE2 concentration-effect curve to higher concentrations of PGE2. The amount of calcium produced is assessed using a calcium-sensitive fluorescent dye such as Fluo-4, AM and a suitable instrument such as a Fluorimetric Imaging Plate Reader (FLIPR). Increasing amounts of [Ca^2+]i produced by receptor activation increase the amount of fluorescence produced by the dye and give rise to an increasing signal. The signal may be detected using the FLIPR instrument and the data generated may be analysed with suitable curve-fitting software.
The human EP1 or EP3 calcium mobilisation assay (hereafter referred to as ‘the calcium assay’) utilises Chinese hamster ovary-K1 (CHO-K1) cells into which a stable (PCIN; BioTechniques 20 (1996): 102-110) vector containing either EP1 or EP3 cDNA has previously been transfected. Cells are cultured in suitable flasks containing culture medium such as DMEM:F-12 supplemented with 10% v/v foetal calf serum, 2 mM L-glutamine, 0.25 mg/ml geneticin, 100 μM flurbiprofen and 10 μg/ml puromycin.
For assay, cells are harvested using a proprietary reagent that dislodges cells such as Versene. Cells are re-suspended in a suitable quantity of fresh culture media for introduction into a 384-well plate. Following incubation for 24 hours at 37° C. the culture media is replaced with a medium containing Fluo-4 and the detergent pluronic acid, and a further incubation takes place. Concentrations of compounds are then added to the plate in order to construct concentration-effect curves. This may be performed on the FLIPR in order to assess the agonist properties of the compounds. Concentrations of PGE2 are then added to the plate in order to assess the antagonist properties of the compounds.
The data so generated may be analysed by means of a computerised curve-fitting routine. The concentration of compound that elicits a half-maximal inhibition of the calcium mobilisation induced by PGE2 (pIC50) may then be estimated.
In general terms: A change in cytosolic calcium serves as a functional read-out for many receptors and channels.

Structures can show the parent of a compound that is named as a salt.

Consider `CC(C)c1cc2cc(Cl)cc(Cc3ccc(C(=O)NCCN(C)C)o3)c2o1` [Example 58, 5-{[5-Chloro-2-(1-methylethyl)-1-benzofuran-7-yl]methyl}-N-[2-(dimethylamino)ethyl]-2-furancarboxamidehydrochloride], for which the Ki is 1 to 1.58 µM. Regarding `CC(C)c1cc2cc(Cl)cc(Cc3ccc(C(=O)NN4CCOCC4)o3)c2o1` [Example 42, 5-{[5-Chloro-2-(1-methylethyl)-1-benzofuran-7-yl]methyl}-N-4-morpholinyl-2-furancarboxamide], the Ki was not above 0.316 µM. Turning to `Cc1cc(NC(=O)C2CCOCC2)nn1Cc1cc(C#N)cc2cc(C(C)C)oc12` [Example 70, N-(1-{[5-Cyano-2-(1-methylethyl)-1-benzofuran-7-yl]methyl}-5-methyl-1H-pyrazol-3-yl)tetrahydro-2H-pyran-4-carboxamide], the Ki is not above 0.316 µM.

With `CC(C)c1cc2cc(Cl)cc(Cc3ccc(C(=O)NN4CCCCC4)o3)c2o1` [Example 43, 5-{[5-Chloro-2-(1-methylethyl)-1-benzofuran-7-yl]methyl}-N-1-piperidinyl-2-furancarboxamide], the Ki was not above 0.316 µM. With `Cc1cc(C(=O)NN2CCOCC2)nn1Cc1cc(C#N)cc2cc(C(C)C)oc12` [Example 45, 1-{[5-Cyano-2-(1-methylethyl)-1-benzofuran-7-yl]methyl}-5-methyl-N-4-morpholinyl-1H-pyrazole-3-carboxamide], the Ki is not above 0.316 µM. For the compound `Cc1cc(C(=O)NC2CCNCC2)nn1Cc1cc(Cl)cc2cc(C(C)C)oc12` [Example 33, 1-{[5-chloro-2-(1-methylethyl)-1-benzofuran-7-yl]methyl}-5-methyl-N-4-piperidinyl-1H-pyrazole-3-carboxamide Hydrochloride], the Ki is 1 to 1.58 µM. The same measure for `CC(C)c1cc2cc(Cl)cc(Cc3ccc(-c4nc5cc(CN(C)C)ccc5[nH]4)o3)c2o1` [Example 11, 1-[2-(5-{[5-Chloro-2-(1-methylethyl)-1-benzofuran-7-yl]methyl}-2-furanyl)-1H-benzimidazol-5-yl]-N,N-dimethylmethanamine Hydrochloride]: not above 0.316 µM; for `Cc1cc(C(=O)NN2CCOCC2)nn1Cc1cc(Cl)cc2cc(C3CC3)oc12` [Example 31, 1-[(5-Chloro-2-cyclopropyl-1-benzofuran-7-yl)methyl]-5-methyl-N-4-morpholinyl-1H-pyrazole-3-carboxamide]: not above 0.316 µM.

As for `Cc1cc(NC(=O)[C@H]2CCCO2)nn1Cc1cc(C#N)cc2cc(C(C)C)oc12` [Example 69, (2R)—N-(1-{[5-Cyano-2-(1-methylethyl)-1-benzofuran-7-yl]methyl}-5-methyl-1H-pyrazol-3-yl)tetrahydro-2-furancarboxamide], the Ki was not above 0.316 µM.

As to `Cc1cc(C(=O)NCC2CCOCC2)nn1Cc1cc(Cl)cc2cc(C(C)C)oc12` [Example 61, 1-{[5-Chloro-2-(1-methylethyl)-1-benzofuran-7-yl]methyl}-5-methyl-N-(tetrahydro-2H-pyran-4-ylmethyl)-1H-pyrazole-3-carboxamide], the Ki is not above 0.316 µM. For `CC(C)c1cc2cc(Cl)cc(Cc3cccc(C(N)=O)n3)c2o1` [Example 40, 6-{[5-Chloro-2-(1-methylethyl)-1-benzofuran-7-yl]methyl}-2-pyridinecarboxamide], the Ki is not above 0.316 µM.

`CC(C)c1cc2cc(Cl)cc(Cc3ccc(-c4nc5cc(CN6CCN(C)CC6)ccc5[nH]4)o3)c2o1` [Example 13, 2-(5-{[5-Chloro-2-(1-methylethyl)-1-benzofuran-7-yl]methyl}-2-furanyl)-5-[(4-methyl-1-piperazinyl)methyl]-1H-benzimidazole Hydrochloride]: the Ki is not above 0.316 µM. Take `Cc1cc(C(N)=O)nn1Cc1cc(C#N)cc2cc(C(C)C)oc12` [Example 41, 1-{[5-Cyano-2-(1-methylethyl)-1-benzofuran-7-yl]methyl}-5-methyl-1H-pyrazole-3-carboxamide]: the Ki was not above 0.316 µM. For the compound `Cc1cc(C(=O)O)nn1Cc1cccc2cc(C(C)C)oc12` [Example 20, 5-Methyl-1-{[2-(1-methylethyl)-1-benzofuran-7-yl]methyl}-1H-pyrazole-3-carboxylic Acid], the Ki is not above 0.316 µM. In the case of `CCN1CCC(CNC(=O)c2cc(C)n(Cc3cc(Cl)cc4cc(C(C)C)oc34)n2)CC1` [Example 36, 1-{[5-chloro-2-(1-methylethyl)-1-beenzofuran-7-yl]methyl}-N-[(1-ethyl-4-piperidinyl)methyl]-5-methyl-1H-pyrazole-3-carboxamidehydrochloride], the Ki was 1 to 1.58 µM. Regarding `CC(C)c1cc2cc(Cl)cc(Cc3ccc(C(=O)Nc4ccc(CN5CCOCC5)cc4)o3)c2o1` [Example 54, 5-{[5-Chloro-2-(1-methylethyl)-1-benzofuran-7-yl]methyl}-N-[4-(4-morpholinylmethyl)phenyl]-2-furancarboxamide Hydrochloride], the Ki was not above 0.316 µM. Regarding `CC(C)c1cc2cc(Cl)cc(Cc3ccc(-c4nc5cc(CN6CCCC6)ccc5[nH]4)o3)c2o1` [Example 12, 2-(5-{[5-Chloro-2-(1-methylethyl)-1-benzofuran-7-yl]methyl}-2-furanyl)-5-(1-pyrrolidinylmethyl)-1H-benzimidazole Hydrochloride], the Ki was not above 0.316 µM.
